Some test systems named below: DMS 114 small cell lung; COLO 205 colon; SN12C renal; BT-549 breast; U251 CNS; HOP-18 NSCLC; M19-MEL melanoma; DU-145 prostate; DMS 273 small cell lung; HOP-62 NSCLC.
Common to all, as to assay: NCI-60 cell line screen, 48 h

Molecules are shown by their SMILES.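 Exposure lasted 48 hours, with cells grown in 96-well plates and compounds tested at five concentrations. At the GI50, growth is halved. TGI is the concentration that stops growth completely.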

For the molecule `CNC1C(O)CC(OC2C/C=C(\C)C/C(C)=C/C=C/CCC(C)CNC(=O)/C=C/C=C/C2C)OC1C` (configuration not stated), the TGI came out at 0.402 µM in the assay with DMS 114 small cell lung; 0.679 µM in the assay with COLO 205 colon; 1.94 µM in the assay on SN12C renal; 2.58 µM with BT-549 breast; 1.03 µM in the assay with U251 CNS; 3.08 µM in the assay with HOP-18 NSCLC. Besides, the TGI in the assay on M19-MEL melanoma came out at 1.68 µM; with DU-145 prostate, 2.79 µM.

On to `CSC(=S)NNC(=O)c1ccncc1`, for which the TGI is 46.1 µM with DMS 273 small cell lung; 28.6 µM with DMS 114 small cell lung; > 100 µM with COLO 205 colon; 41.4 µM in the assay with SN12C renal; 41.9 µM in the assay with U251 CNS; > 100 µM in the assay on HOP-18 NSCLC. In addition, the results for the TGI in the assay with M19-MEL melanoma and with HOP-62 NSCLC were 35.8 µM and 70.2 µM, respectively.

Take `CCCCCCCCCC(=O)OCC1OC(n2cc(F)c(=O)[nH]c2=O)C(N)C(OC(=O)CCCCCCCCC)C1O` (configuration not stated): the TGI with DMS 273 small cell lung was found to be 38 µM; in the assay on DMS 114 small cell lung it was 29.6 µM; with COLO 205 colon, 31.2 µM; in the assay on SN12C renal, 32.2 µM; with U251 CNS, 32.3 µM; in the assay with M19-MEL melanoma, 31.2 µM. Besides, the TGI in the assay with HOP-62 NSCLC is > 100 µM.

With `CC1C(=O)N(C)C2(CO)C(=O)O[C@H](C)C12O` (some centres not stated), the TGI in the assay with DMS 114 small cell lung, in the assay with COLO 205 colon, in the assay with U251 CNS, in the assay on HOP-18 NSCLC, in the assay on M19-MEL melanoma and in the assay with HOP-62 NSCLC was > 100 µM each time.

As for `O=C(CC(=O)C(F)(F)F)c1csc2ccccc12`, the TGI with DMS 273 small cell lung is > 100 µM; with DMS 114 small cell lung, > 100 µM; in the assay with COLO 205 colon, > 100 µM; with SN12C renal it was 75.4 µM; with U251 CNS it was > 100 µM; with M19-MEL melanoma, > 100 µM. In addition, the TGI in the assay on HOP-62 NSCLC amounted to 81.1 µM.

As to `COC(=O)C1=CC2OC1(C)C1(CC1)C2=O` (configuration not stated), the TGI with COLO 205 colon was 33.5 µM; in the assay with SN12C renal, 31 µM; in the assay with U251 CNS it was > 100 µM; with M19-MEL melanoma, 51.7 µM; in the assay with HOP-62 NSCLC, > 100 µM.

Turning to `Cc1c(CCl)c(=O)oc2c(C)c3occ(CCl)c(=O)c3cc12`, the TGI in the assay with DMS 114 small cell lung is 41.8 µM; with COLO 205 colon, 32.9 µM; in the assay on SN12C renal, 56.4 µM; in the assay with U251 CNS it was > 100 µM; in the assay with HOP-18 NSCLC, 32 µM; in the assay on M19-MEL melanoma it was 30.3 µM. The TGI with HOP-62 NSCLC is > 100 µM.

With `O=C(O)/C(Cl)=C(\Cl)C(=O)Nc1ccccc1`, the TGI with DMS 273 small cell lung, in the assay with COLO 205 colon, in the assay with SN12C renal, in the assay with U251 CNS, in the assay with HOP-18 NSCLC and with M19-MEL melanoma was > 100 µM throughout. For the same molecule, in the assay with HOP-62 NSCLC, the TGI was > 100 µM.

Take `CN1CCN(Cc2ccc(NC(=O)c3cncc(C#Cc4c(N)ncc5cc(F)ccc45)c3)cc2C(F)(F)F)CC1`: the GI50 is 0.581 µM in the assay on COLO 205 colon; 1.39 µM in the assay with SN12C renal; 4.86 µM with BT-549 breast; 1.04 µM in the assay on U251 CNS; 2.4 µM with HOP-62 NSCLC; 0.874 µM with DU-145 prostate. For the same molecule, the TGI was found to be 4.93 µM with COLO 205 colon; 3.84 µM in the assay on SN12C renal; 12.6 µM with BT-549 breast; 2.27 µM in the assay on U251 CNS; 12 µM in the assay with HOP-62 NSCLC; 1.58 µM with DU-145 prostate.

Regarding `CC1C2=CC=C(O2)C(C)(C)C2=CC=C(O2)C(C)(C)C2=CC=C(O2)C(C)(C)C2=CC=C1O2`, the TGI in the assay on DMS 273 small cell lung, in the assay with COLO 205 colon, in the assay with SN12C renal, in the assay with U251 CNS, in the assay on HOP-18 NSCLC and in the assay on M19-MEL melanoma was > 100 µM in each case. In addition, in the assay on HOP-62 NSCLC, the TGI was > 100 µM.

Regarding `CCOC(=O)c1cc2ncccc2c2ccccc12`, the TGI with COLO 205 colon, in the assay with SN12C renal, with BT-549 breast, with U251 CNS, with HOP-62 NSCLC and with DU-145 prostate was > 100 µM in each case.

Consider `Cc1c(Cl)ccc2c1NC(=O)C2(O)C1Cc2ccccc2C1=O` (configuration not stated), for which the TGI in the assay on DMS 114 small cell lung, in the assay with COLO 205 colon, with SN12C renal, in the assay on U251 CNS, in the assay on HOP-18 NSCLC and with M19-MEL melanoma was > 100 µM in each case. For the same molecule, the TGI in the assay with HOP-62 NSCLC was > 100 µM.

In the case of `Cc1cc(C)n(-c2c(O)ccc(O)c2-n2nc(C)cc2C)n1`, the TGI with DMS 273 small cell lung, in the assay with DMS 114 small cell lung, with COLO 205 colon, in the assay on SN12C renal, in the assay with U251 CNS and with M19-MEL melanoma was > 100 µM each time. Also, the TGI with HOP-62 NSCLC was > 100 µM.

On to `O=C(O)CC1(C(=O)O)CCCCC1`, for which the TGI in the assay on COLO 205 colon, in the assay with SN12C renal, in the assay with BT-549 breast, in the assay with U251 CNS, in the assay on HOP-62 NSCLC and in the assay with DU-145 prostate was > 100 µM each time.

For the molecule `Nc1nc(N)c(-c2ccc(Cl)cc2)c(CCC(=O)Nc2cccc(C(F)(F)F)c2)n1`, the TGI in the assay with DMS 273 small cell lung, in the assay with DMS 114 small cell lung, in the assay with COLO 205 colon, in the assay with SN12C renal, in the assay with U251 CNS and in the assay with HOP-18 NSCLC was > 100 µM throughout. The TGI in the assay on HOP-62 NSCLC was > 100 µM.

As for `CN=S(=O)(C[C@]1(O)CC2OC1C1OC(C)(C)OC21)c1ccccc1` (some centres not stated), the TGI with DMS 273 small cell lung, in the assay on DMS 114 small cell lung, with COLO 205 colon, in the assay on SN12C renal, in the assay with U251 CNS and in the assay on M19-MEL melanoma was > 100 µM each time. Moreover, in the assay on HOP-62 NSCLC, the TGI was > 100 µM.

In the case of `CN(CCC(=O)O)S(=O)(=O)c1ccccc1`, the TGI with COLO 205 colon, with SN12C renal, with BT-549 breast, in the assay with U251 CNS, in the assay on HOP-62 NSCLC and in the assay with DU-145 prostate was > 100 µM each time.

As to `CCN(CC)c1ccc2c(c1)N=C1N=CC=CN1C2(c1ccc(N(C)C)cc1)c1ccc(N(C)C)cc1`, the TGI in the assay with DMS 273 small cell lung was > 100 µM; in the assay with COLO 205 colon, 6.53 µM; in the assay with SN12C renal it was 19.3 µM; in the assay on U251 CNS it was 16 µM; in the assay with HOP-18 NSCLC, 12 µM; with M19-MEL melanoma it was 19.3 µM. The molecule further had a TGI with HOP-62 NSCLC of 24.3 µM.
